Assay results published in a compilation of properties of binary mixtures (doi:10.1021/acs.jced.8b00965).

Assay: xn = mol fraction of the nth substance listed
Conditions: 100 kPa

C[N+](C)(C)CCC[N+]1(C)CCCCC1.N#C[N-]C#N.N#C[N-]C#N + CO
viscosity [mPa·s]
Conditions | x1 = 0.0999 | x1 = 0.2001 | x1 = 0.3002 | x1 = 0.3999 | x1 = 0.5002 | x1 = 0.6001 | x1 = 0.7003 | x1 = 0.7998 | x1 = 0.8995 | x1 = 1
293.15 K | 4.25 | 14.7 | 39.6 | 109 | – | – | 1181 | 1884 | 2855 | 4503
303.15 K | 3.58 | – | – | 70.3 | – | 330 | 610 | 920 | 1281 | 1837
313.15 K | 3.09 | 8.9 | 20.3 | 46.7 | 100 | 203 | 337 | 489 | 646 | 860
323.15 K | – | 7.22 | – | 33.8 | 68 | 130 | 206 | 292 | 369 | 460
333.15 K | 2.46 | 6 | 12.5 | – | 48.4 | 88.2 | 134 | 187 | 236 | 270

C[N+](C)(C)CCC[n+]1ccccc1.N#C[N-]C#N.N#C[N-]C#N + CO
viscosity [mPa·s]
Conditions | x1 = 0.0999 | x1 = 0.2001 | x1 = 0.3002 | x1 = 0.3999 | x1 = 0.5002 | x1 = 0.6001 | x1 = 0.7003 | x1 = 0.7998 | x1 = 0.8995 | x1 = 1
293.15 K | 4.37 | 14.9 | 32.5 | – | 117 | 233 | 343 | 508 | – | 2191
303.15 K | 3.66 | 11.4 | 23.1 | 45.9 | – | 131 | – | 255 | 396 | 830
313.15 K | – | 9.01 | 17.4 | – | – | 81.1 | 110 | – | 198 | –
323.15 K | 2.82 | 7.36 | – | – | – | – | 70.6 | 90.5 | 116 | 210
333.15 K | – | – | 11.4 | – | 28 | – | 49.3 | 60.6 | 76 | 127

CO + C[N+](C)(C)CCC[n+]1ccccc1.N#C[N-]C#N.N#C[N-]C#N
x2 = 0
Conditions | viscosity [mPa·s]
293.15 K | 0.584
303.15 K | 0.508
313.15 K | 0.446
323.15 K | 0.395
333.15 K | 0.352

CO + C[N+](C)(C)CCC[N+]1(C)CCCCC1.N#C[N-]C#N.N#C[N-]C#N
x2 = 0
Conditions | viscosity [mPa·s]
303.15 K | 0.508
313.15 K | 0.446
333.15 K | 0.352
